From US6951876B2, “Sulfamoylheteroaryl pyrazole compounds as anti-inflammatory/analgesic agents” (Pfizer, Inc., priority 1999, dated 2005)
Where a name gives a salt, the structure may show the parent alone.

Row | melting point | SMILES
1 | 138 °C | Cl.NS(=O)(=O)c1ccc(-n2nc(C(F)(F)F)cc2-c2ccc(-c3cncs3)cc2)cn1
2 | 138 to 140 °C | Cc1cc(-c2cc(C(F)(F)F)nn2-c2ccc(S(N)(=O)=O)cn2)ccc1-c1cscn1.Cl
3 | 121 °C | Cl.NS(=O)(=O)c1ccc(-n2nc(C(F)(F)F)cc2-c2ccc(-c3cscn3)cc2)cn1
4 | 156 °C | NS(=O)(=O)c1ccc(-n2nc(C(F)(F)F)cc2-c2ccc(-c3ncco3)c(Cl)c2)cn1 (as salt: hydrochloride) [Example 3, 5-[5-[3-Chloro-4-(1,3-oxazol-2-yl)phenyl]-3-(trifluoromethyl)-1H-pyrazol-1-yl]-2-pyridinesulfonamide]
5 | 114 °C | NS(=O)(=O)c1ccc(-n2nc(C(F)(F)F)cc2-c2ccc(-c3cscn3)c(C(F)(F)F)c2)cn1 [Example 5, 5-{5-[4-(1,3-Thiazol-4-yl)-3-(trifluoromethyl)phenyl]-3-(trifluoromethyl)-1H-pyrazol-1-yl}-2-pyridinesulfonamide]

Second part, the compound before the results:

Row | SMILES | melting point
6 | Cl.NS(=O)(=O)c1ccc(-n2nc(C(F)(F)F)c(Cl)c2-c2ccc(-c3cscn3)cc2)cn1 | 157 °C
7 | CCc1c(-c2ccc(-c3cscn3)cc2)c(C(F)(F)F)nn1-c1ccc(S(N)(=O)=O)nc1.Cl | 141 °C
8 | CCc1c(C(F)(F)F)nn(-c2ccc(S(N)(=O)=O)nc2)c1-c1ccc(-c2cncs2)cc1.Cl | 169 °C
9 | Cl.NS(=O)(=O)c1ccc(-n2nc(C(F)(F)F)c(F)c2-c2ccc(-c3cscn3)cc2)cn1 | 145 °C
10 | NS(=O)(=O)c1ccc(-n2nc(C(F)(F)F)cc2-c2ccc(-c3ccco3)cc2)cn1 (as salt: hydrochloride) [Example 2, 5-[5-[4-(2-Furyl)phenyl]-3-(trifluoromethyl)-1H-pyrazol-1-yl]-2-pyridinesulfonamide] | 140 to 170 °C
11 | NS(=O)(=O)c1ccc(-n2nc(C(F)(F)F)c(Cl)c2-c2ccc(-c3cncs3)c(Cl)c2)cn1 (as salt: methanesulfonate) [Example 16, 5-[4-Chloro-5-[3-chloro-4-(1,3-thiazol-5-yl)phenyl]-3-trifluoromethyl-1H-pyrazol-1-yl]-2-pyridinesulfonamide] | 191 to 193 °C
